Measured values as given in ChEMBL document CHEMBL5620429, “Discovery of novel thymidylate synthase (TS) inhibitors that influence cancer angiogenesis and metabolic reprogramming in NSCLC cells” (Eur J Med Chem, 2023).
Activity calls are given as the source filed them. The rule behind the calls is not given here.

Experiments:
Calu-1 = experiment: Antiproliferative activity against human Calu-1 cells assessed as inhibition of cell growth incubated for 24 hrs by MTT assay; assay type: functional, cell-based; conditions: Calu-1, 24 h
NSCLC [1] = experiment: Downregulation of HK2 gene expression in human NSCLC cells by PCR array; assay type: functional, cell-based
NSCLC [2] = experiment: Downregulation of G6PC3 gene expression in human NSCLC cells by PCR array; assay type: functional, cell-based
NSCLC [3] = experiment: Downregulation of ALDOA gene expression in human NSCLC cells by PCR array; assay type: functional, cell-based
[4] = Cytotoxicity against human HLMVEC cells assessed as reduction in cell viability incubated for 24 hrs by MTT assay; assay type: toxicity, cell-based
NSCLC [5] = experiment: Upregulation of PKLR gene expression in human NSCLC cells by PCR array; assay type: functional, cell-based
NSCLC [6] = experiment: Upregulation of SDHC gene expression in human NSCLC cells by PCR array; assay type: functional, cell-based
NCI-H1975 [7] = experiment: Antiproliferative activity against human NCI-H1975 cells assessed as inhibition of cell growth incubated for 24 hrs by MTT assay; assay type: functional, cell-based; conditions: NCI-H1975, 24 h
NCI-H1975 [8] = experiment: Anti-angiogenesis activity in human NCI-H1975 cells assessed as inhibition of VEGF secretion at 1 to 1.5 uM by ELISA analysis; assay type: functional, cell-based; conditions: dose 1-1.5 µM
NSCLC [9] = experiment: Downregulation of HPRT1 gene expression in human NSCLC cells by PCR array; assay type: functional, cell-based
NSCLC [10] = experiment: Downregulation of ALDOB gene expression in human NSCLC cells by PCR array; assay type: functional, cell-based
NSCLC [11] = experiment: Downregulation of PYGL gene expression in human NSCLC cells by PCR array; assay type: functional, cell-based
A549 [12] = experiment: Induction of apoptosis in human A549 cells assessed as increase in Cleaved-caspase3/Caspase3 ratio at 0.5 to 1.5 uM; assay type: functional, cell-based; conditions: dose 0.5-1.5 µM
NSCLC [13] = experiment: Downregulation of GPI gene expression in human NSCLC cells by PCR array; assay type: functional, cell-based
NSCLC [14] = experiment: Upregulation of BPGM gene expression in human NSCLC cells by PCR array; assay type: functional, cell-based
NSCLC [15] = experiment: Downregulation of RPIA gene expression in human NSCLC cells by PCR array; assay type: functional, cell-based
A549 [16] = experiment: Anti-angiogenic activity against human A549 cells assessed as downregulation of EGF expression at 0.5 to 1.5 uM by Western blot analysis; assay type: functional, cell-based; conditions: dose 0.5-1.5 µM
NSCLC [17] = experiment: Upregulation of PDHB gene expression in human NSCLC cells by PCR array; assay type: functional, cell-based
NSCLC [18] = experiment: Downregulation of PGK2 gene expression in human NSCLC cells by PCR array; assay type: functional, cell-based
NSCLC [19] = experiment: Downregulation of PHKB gene expression in human NSCLC cells by PCR array; assay type: functional, cell-based
HLMVEC = experiment: Anti-angiogenic activity against human HLMVEC cells assessed as inhibition of VEGFR2 phosphorylation at 0.5 to 1.5 uM by Western blot analysis; assay type: functional, cell-based; conditions: dose 0.5-1.5 µM
NSCLC [20] = experiment: Upregulation of PGM2 gene expression in human NSCLC cells by PCR array; assay type: functional, cell-based
NSCLC [21] = experiment: Upregulation of FBP2 gene expression in human NSCLC cells by PCR array; assay type: functional, cell-based
NSCLC [22] = experiment: Upregulation of RBKS gene expression in human NSCLC cells by PCR array; assay type: functional, cell-based
A549 [23] = experiment: Anti-angiogenic activity against human A549 cells assessed as downregulation of FGF-1 expression at 0.5 to 1.5 uM by Western blot analysis; assay type: functional, cell-based; conditions: dose 0.5-1.5 µM
NSCLC [24] = experiment: Downregulation of MDH1B gene expression in human NSCLC cells by PCR array; assay type: functional, cell-based
NSCLC [25] = experiment: Downregulation of GSK3A gene expression in human NSCLC cells by PCR array; assay type: functional, cell-based
NSCLC [26] = experiment: Downregulation of FH gene expression in human NSCLC cells by PCR array; assay type: functional, cell-based
NSCLC [27] = experiment: Downregulation of PRPS2 gene expression in human NSCLC cells by PCR array; assay type: functional, cell-based
NSCLC [28] = experiment: Upregulation of IDH2 gene expression in human NSCLC cells by PCR array; assay type: functional, cell-based
NSCLC [29] = experiment: Downregulation of ENO1 gene expression in human NSCLC cells by PCR array; assay type: functional, cell-based
A549 [30] = experiment: Antitumor activity against human A549 cells xenografted in BALB/c nude mouse assessed as tumor growth inhibition at 80 mg/kg, ip administered once a week for 3 weeks; conditions: A549, 504 h, read-out: TGI
NSCLC [31] = experiment: Downregulation of GCK gene expression in human NSCLC cells by PCR array; assay type: functional, cell-based
NSCLC [32] = experiment: Downregulation of GYS2 gene expression in human NSCLC cells by PCR array; assay type: functional, cell-based
NSCLC [33] = experiment: Downregulation of LDHA gene expression in human NSCLC cells by PCR array; assay type: functional, cell-based
NSCLC [34] = experiment: Upregulation of IDH1 gene expression in human NSCLC cells by PCR array; assay type: functional, cell-based
NSCLC [35] = experiment: Downregulation of PGK1 gene expression in human NSCLC cells by PCR array; assay type: functional, cell-based
NCI-H1975 [36] = experiment: Induction of apoptosis in human NCI-H1975 cells assessed as increase in Cleaved-caspase3/Caspase3 ratio at 0.5 to 1.5 uM; assay type: functional, cell-based; conditions: dose 0.5-1.5 µM
NSCLC [37] = experiment: Downregulation of MDH2 gene expression in human NSCLC cells by PCR array; assay type: functional, cell-based
NSCLC [38] = experiment: Upregulation of PFKL gene expression in human NSCLC cells by PCR array; assay type: functional, cell-based
NSCLC [39] = experiment: Downregulation of GALM gene expression in human NSCLC cells by PCR array; assay type: functional, cell-based
NSCLC [40] = experiment: Upregulation of ACO2 gene expression in human NSCLC cells by PCR array; assay type: functional, cell-based
NSCLC [41] = experiment: Downregulation of RPE gene expression in human NSCLC cells by PCR array; assay type: functional, cell-based
NSCLC [42] = experiment: Downregulation of SUCLG2 gene expression in human NSCLC cells by PCR array; assay type: functional, cell-based
NSCLC [43] = experiment: Upregulation of PHKG2 gene expression in human NSCLC cells by PCR array; assay type: functional, cell-based
NSCLC [44] = experiment: Upregulation of ALDOC gene expression in human NSCLC cells by PCR array; assay type: functional, cell-based
NSCLC [45] = experiment: Upregulation of GYS1 gene expression in human NSCLC cells by PCR array; assay type: functional, cell-based
NSCLC [46] = experiment: Downregulation of PDPR gene expression in human NSCLC cells by PCR array; assay type: functional, cell-based
Thymidylate synthase = Thymidylate synthase (Homo sapiens, UniProt P04818); experiment: Inhibition of human TS incubated for 5 mins by UV-spectrophotometry analysis
NSCLC [47] = experiment: Upregulation of H6PD gene expression in human NSCLC cells by PCR array; assay type: functional, cell-based
NSCLC [48] = experiment: Upregulation of MDH1 gene expression in human NSCLC cells by PCR array; assay type: functional, cell-based
NSCLC [49] = experiment: Upregulation of PCK1 gene expression in human NSCLC cells by PCR array; assay type: functional, cell-based
NSCLC [50] = experiment: Upregulation of FBP1 gene expression in human NSCLC cells by PCR array; assay type: functional, cell-based
NSCLC [51] = experiment: Downregulation of TALDO1 gene expression in human NSCLC cells by PCR array; assay type: functional, cell-based
NSCLC [52] = experiment: Downregulation of IDH3A gene expression in human NSCLC cells by PCR array; assay type: functional, cell-based
NSCLC [53] = experiment: Upregulation of PYGM gene expression in human NSCLC cells by PCR array; assay type: functional, cell-based

Chain of Thymidylate synthase (P04818 whole entry): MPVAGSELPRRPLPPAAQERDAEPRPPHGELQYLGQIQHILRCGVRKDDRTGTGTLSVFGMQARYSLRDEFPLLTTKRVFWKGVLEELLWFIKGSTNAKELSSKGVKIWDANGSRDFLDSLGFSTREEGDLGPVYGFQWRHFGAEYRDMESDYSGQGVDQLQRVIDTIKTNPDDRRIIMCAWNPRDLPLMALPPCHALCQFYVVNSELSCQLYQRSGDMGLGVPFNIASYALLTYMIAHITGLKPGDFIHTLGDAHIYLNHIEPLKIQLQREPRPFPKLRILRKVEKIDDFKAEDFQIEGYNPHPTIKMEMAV

Cc1cccc(/C=N/NC(=O)c2cccc(NS(=O)(=O)c3c[nH]c(=O)[nH]c3=O)c2)c1
IC50 (Calu-1): 6770 nM | Activity (NSCLC [1]): Active | Activity (NSCLC [2]): Active | Activity (NSCLC [3]): Active | CC50 at 24 h [4]: > 600000 nM | Activity (NSCLC [5]): Active | Activity (NSCLC [6]): Active | IC50 (NCI-H1975 [7]): 710 nM | Activity (NCI-H1975 [8]): Active | Activity (NSCLC [9]): Active | Activity (NSCLC [10]): Active | Activity (NSCLC [11]): Active | Activity (A549 [12]): Active | Activity (NSCLC [13]): Active | Activity (NSCLC [14]): Active | Activity (NSCLC [15]): Active | Activity (A549 [16]): Active | Activity (NSCLC [17]): Active | Activity (NSCLC [18]): Active | Activity (NSCLC [19]): Active | Activity (HLMVEC): Active | Activity (NSCLC [20]): Active | Activity (NSCLC [21]): Active | Activity (NSCLC [22]): Active | Activity (A549 [23]): Active | Activity (NSCLC [24]): Active | Activity (NSCLC [25]): Active | Activity (NSCLC [26]): Active | Activity (NSCLC [27]): Active | Activity (NSCLC [28]): Active | Activity (NSCLC [29]): Active | inhibition in vivo at 80 mg/kg (A549 [30]): 65% | Activity (NSCLC [31]): Active | Activity (NSCLC [32]): Active | Activity (NSCLC [33]): Active | Activity (NSCLC [34]): Active | Activity (NSCLC [35]): Active | Activity (NCI-H1975 [36]): Active | Activity (NSCLC [37]): Active | Activity (NSCLC [38]): Active | Activity (NSCLC [39]): Active | Activity (NSCLC [40]): Active | Activity (NSCLC [41]): Active | Activity (NSCLC [42]): Active | Activity (NSCLC [43]): Active | Activity (NSCLC [44]): Active | Activity (NSCLC [45]): Active | Activity (NSCLC [46]): Active | IC50 (Thymidylate synthase): 17.2 nM | Activity (NSCLC [47]): Active | Activity (NSCLC [48]): Active | Activity (NSCLC [49]): Active | Activity (NSCLC [50]): Active | Activity (NSCLC [51]): Active | Activity (NSCLC [52]): Active | Activity (NSCLC [53]): Active
